Patent US11053204B2, “Pyrimidinyloxy benzene derivatives as herbicides” (FMC Corporation, priority 2015, dated 2021)

Tests used:
Format in all cases: in vivo
[1] = system: barnyardgrass (Echinochloa crus-galli); test: Test B flooded paddy test, plant response rating; settings: 250 g ai/ha; Flood; scale of 0 to 100 where 0 is no effect and 100 is complete control; 13 to 15 days
How it was run: (§1)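 Under a constant 3 cm flood, test compounds went directly into the paddy water. Following 13 to 15 days of greenhouse growth, treated species and controls were compared by eye.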

[2] = system: ducksalad (Heteranthera limosa); test: Test B flooded paddy test, plant response rating; settings: 250 g ai/ha; Flood; scale of 0 to 100 where 0 is no effect and 100 is complete control; 13 to 15 days
How it was run: as §1

rice (Oryza sativa) [3] = test: Test B flooded paddy test, plant response rating; settings: 250 g ai/ha; Flood; scale of 0 to 100 where 0 is no effect and 100 is complete control; 13 to 15 days
How it was run: as §1

[4] = system: sedge, umbrella (small-flower umbrella sedge, Cyperus difformis); test: Test B flooded paddy test, plant response rating; settings: 250 g ai/ha; Flood; scale of 0 to 100 where 0 is no effect and 100 is complete control; 13 to 15 days
How it was run: as §1

[5] = system: barnyardgrass (Echinochloa crus-galli); test: Test A postemergence, visual injury rating; settings: 0 is no effect, 100 is complete control
How it was run: (§2)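 Visual 0–100 rating (100 = complete control) taken about 10 d post-treatment relative to untreated checks. Preemergence: directed soil spray on sown loam/sand pots. Postemergence: seedlings 2–10 cm, 1–2 leaf. Non-phytotoxic solvent formulation with surfactant.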

[6] = system: large (Lg) crabgrass (Digitaria sanguinalis); test: Test A postemergence, visual injury rating; settings: 1000 g ai/ha, 0 is no effect, 100 is complete control
How it was run: as §2

[7] = system: wheat (Triticum aestivum); test: Test A postemergence, visual injury rating; settings: 0 is no effect, 100 is complete control
How it was run: as §2

corn (Zea mays) [8] = test: Test A postemergence, visual injury rating; settings: 0 is no effect, 100 is complete control
How it was run: as §2

[9] = system: pigweed (Amaranthus retroflexus); test: Test A postemergence, visual injury rating; settings: 0 is no effect, 100 is complete control
How it was run: as §2

[10] = system: morningglory (Ipomoea spp.); test: Test A postemergence, visual injury rating; settings: 1000 g ai/ha, 0 is no effect, 100 is complete control
How it was run: as §2

[11] = system: giant foxtail (Setaria faberii); test: Test A postemergence, visual injury rating; settings: 0 is no effect, 100 is complete control
How it was run: as §2

[12] = system: barnyardgrass (Echinochloa crus-galli); test: Test A preemergence, visual injury rating; settings: for Barnyardgrass plant response rating: 0 to 100 scale (0 no effect, 100 complete control)
How it was run: as §2

[13] = system: large (Lg) crabgrass (Digitaria sanguinalis); test: Test A preemergence, visual injury rating; settings: 1000 g ai/ha, 0 to 100 scale (0 no effect, 100 complete control)
How it was run: as §2

[14] = system: wheat (Triticum aestivum); test: Test A preemergence, visual injury rating; settings: 1000 g ai/ha, 0 to 100 scale (0 no effect, 100 complete control)
How it was run: as §2

corn (Zea mays) [15] = test: Test A preemergence, visual injury rating; settings: 1000 g ai/ha, 0 to 100 scale (0 no effect, 100 complete control)
How it was run: as §2

[16] = system: pigweed (Amaranthus retroflexus); test: Test A preemergence, visual injury rating; settings: for Pigweed plant response rating: 0 to 100 scale (0 no effect, 100 complete control)
How it was run: as §2

[17] = system: morningglory (Ipomoea spp.); test: Test A preemergence, visual injury rating; settings: 1000 g ai/ha, 0 to 100 scale (0 no effect, 100 complete control)
How it was run: as §2

[18] = system: velvetleaf (Abutilon theophrasti); test: Test A preemergence, visual injury rating; settings: 1000 g ai/ha, 0 to 100 scale (0 no effect, 100 complete control)
How it was run: as §2

[19] = system: giant foxtail (Setaria faberii); test: Test A preemergence, visual injury rating; settings: for Foxtail, Giant plant response rating: 0 to 100 scale (0 no effect, 100 complete control)
How it was run: as §2

[20] = system: galium (catchweed bedstraw, Galium aparine); test: Test A postemergence, visual injury rating; settings: 0 is no effect, 100 is complete control
How it was run: as §2

[21] = system: blackgrass (Alopecurus myosuroides); test: Test A postemergence, visual injury rating; settings: 0 is no effect, 100 is complete control
How it was run: as §2

[22] = system: Italian ryegrass (Lolium multiflorum); test: Test A postemergence, visual injury rating; settings: 0 is no effect, 100 is complete control
How it was run: as §2

kochia (Kochia scoparia) [23] = test: Test A postemergence, visual injury rating; settings: 0 is no effect, 100 is complete control
How it was run: as §2

[24] = system: ragweed (common ragweed, Ambrosia elatior); test: Test A postemergence, visual injury rating; settings: 0 is no effect, 100 is complete control
How it was run: as §2

[25] = system: barnyardgrass (Echinochloa crus-galli); test: Test C flooded paddy test, plant response rating; settings: flood, scale 0 to 100
Description: (§3) At the same time, plants selected from these crop and weed species and also chickweed (common chickweed, Stellaria media), buckwheat, wild (wild buckwheat, Polygonum convolvulus), wild mustard (Sinapis arvensis), field poppy (Papaver rhoeas), field violet (Viola arvensis), geranium, cutleaf (cutleaf geranium, Geranium dissectum), Canada thistle (Cirsium arvense), and speedwell (bird's-eye speedwell, Veronica persica), were planted in pots containing Sunshine Redi-Earth® planting medium comprising spaghnum peat moss, vermiculite, starter nutrients and dolomitic limestone and treated with postemergence applications of test chemicals formulated in the same manner. Plants ranged in height from 2 to 18 cm (1- to 4-leaf stage) for postemergence treatments. Treated plants and controls were maintained in a greenhouse for 13 to 15 d, after which time all species were compared to controls and visually evaluated. Plant response ratings, summarized in Table C, are based on a scale of 0 to 100 where 0 is no effect and 100 is complete control. A dash (-) response means no test result.
(§4) Plant species in the flooded paddy test consisted of rice (Oryza sativa), sedge, umbrella (small-flower umbrella sedge Cyperus difformis), ducksalad (Heteranthera limosa), and barnyardgrass (Echinochloa crus-galli) grown to the 2-leaf stage for testing. At time of treatment, test pots were flooded to 3 cm above the soil surface, treated by application of test compounds directly to the paddy water, and then maintained at that water depth for the duration of the test.

[26] = system: ducksalad (Heteranthera limosa); test: Test C flooded paddy test, plant response rating; settings: flood, scale 0 to 100
Description: as §3, §4

[27] = system: sedge, umbrella (small-flower umbrella sedge Cyperus difformis); test: Test C flooded paddy test, plant response rating; settings: flood, scale 0 to 100
Description: as §3, §4

rice (Oryza sativa) [28] = test: Test C flooded paddy test, plant response rating; settings: flood, scale 0 to 100
Description: as §3, §4

[29] = system: Italian ryegrass (Lolium multiflorum); test: Test A preemergence, visual injury rating
How it was run: as §2

kochia (Kochia scoparia) [30] = test: Test A preemergence, visual injury rating
How it was run: as §2

[31] = system: ragweed (common ragweed, Ambrosia elatior); test: Test A preemergence, visual injury rating
How it was run: as §2

[32] = 31 g ai/ha, 0 to 100 scale, approximately 10 days
[33] = 31 g ai/ha, 0 to 100 scale, 0 no effect, 100 complete control
[34] = 125 g ai/ha, 0 to 100 scale (0 no effect, 100 complete control)

CC(C)ON=Cc1ccccc1Oc1ncc(Cl)cn1 [Compound 57]
Plant response rating, Barnyardgrass [1]: 0
Plant response rating, Ducksalad [2]: 0
Plant response rating, Rice (rice (Oryza sativa) [3]): 0
Plant response rating, Sedge, Umbrella [4]: 0
Barnyardgrass plant response rating (0 to 100 scale) ([5]; 1000 g ai/ha): 20
Crabgrass, Large plant response rating (0 to 100 scale) [6]: 30
Wheat plant response rating (0 to 100 scale) ([7]; 1000 g ai/ha): 20
Corn plant response rating (0 to 100 scale) (corn (Zea mays) [8]; 1000 g ai/ha): 20
Pigweed plant response rating (0 to 100 scale) ([9]; 1000 g ai/ha): 40
Morningglory plant response rating (0 to 100 scale) [10]: 10
Foxtail, Giant plant response rating (0 to 100 scale) ([11]; 1000 g ai/ha): 20
Barnyardgrass plant response rating ([12]; 1000 g ai/ha): 50
Crabgrass, Large plant response rating [13]: 100
Wheat plant response rating [14]: 0
Corn plant response rating (corn (Zea mays) [15]): 0
Pigweed plant response rating ([16]; 1000 g ai/ha): 60
Morningglory plant response rating [17]: 0
Velvetleaf plant response rating [18]: 20
Foxtail, Giant plant response rating ([19]; 1000 g ai/ha): 90

CC(=NOC(C)(C)C)c1ccccc1Oc1ncc(Cl)cn1 [Compound 59]
Barnyardgrass plant response rating (0 to 100 scale) ([5]; 1000 g ai/ha): 0
Crabgrass, Large plant response rating (0 to 100 scale) [6]: 10
Wheat plant response rating (0 to 100 scale) ([7]; 1000 g ai/ha): 30
Corn plant response rating (0 to 100 scale) (corn (Zea mays) [8]; 1000 g ai/ha): 20
Pigweed plant response rating (0 to 100 scale) ([9]; 1000 g ai/ha): 30
Morningglory plant response rating (0 to 100 scale) [10]: 0
Foxtail, Giant plant response rating (0 to 100 scale) ([11]; 1000 g ai/ha): 10
Barnyardgrass plant response rating ([12]; 1000 g ai/ha): 20
Crabgrass, Large plant response rating [13]: 80
Wheat plant response rating [14]: 0
Corn plant response rating (corn (Zea mays) [15]): 0
Pigweed plant response rating ([16]; 1000 g ai/ha): 30
Morningglory plant response rating [17]: 0
Velvetleaf plant response rating [18]: 0
Foxtail, Giant plant response rating ([19]; 1000 g ai/ha): 30

FC(F)(F)CCOCc1c(Br)cccc1Oc1ncc(Cl)cn1 [Compound 66]
Plant response rating, Barnyardgrass [1]: 30
Plant response rating, Ducksalad [2]: 100
Plant response rating, Rice (rice (Oryza sativa) [3]): 0
Plant response rating, Sedge, Umbrella [4]: 95
Galium plant response rating [20, 32]: 30
Galium plant response rating (0 to 100 scale) ([20]; 125 g ai/ha): 100
Blackgrass plant response rating [21, 32]: 10
Blackgrass plant response rating (0 to 100 scale) ([21]; 125 g ai/ha): 100
Barnyardgrass plant response rating [5, 32]: 40
Barnyardgrass plant response rating (0 to 100 scale) ([5]; 125 g ai/ha): 100
Wheat plant response rating [7, 32]: 0
Wheat plant response rating (0 to 100 scale) ([7]; 125 g ai/ha): 30
Corn plant response rating (corn (Zea mays) [8]; [32]): 20
Corn plant response rating (0 to 100 scale) (corn (Zea mays) [8]; 125 g ai/ha): 70
Pigweed plant response rating [9, 32]: 40
Pigweed plant response rating (0 to 100 scale) ([9]; 125 g ai/ha): 100
Ryegrass, Italian plant response rating [22, 32]: 0
Ryegrass, Italian plant response rating (0 to 100 scale) ([22]; 125 g ai/ha): 50
Foxtail, Giant plant response rating [11, 32]: 30
Foxtail, Giant plant response rating (0 to 100 scale) ([11]; 125 g ai/ha): 100
Kochia plant response rating (kochia (Kochia scoparia) [23]; [32]): 20
Kochia plant response rating (0 to 100 scale) (kochia (Kochia scoparia) [23]; 125 g ai/ha): 50
Ragweed plant response rating [24, 32]: 0
Ragweed plant response rating (0 to 100 scale) ([24]; 125 g ai/ha): 20
Barnyardgrass plant response rating ([25]; 31 g ai/ha): 0
Barnyardgrass plant response rating ([25]; 62 g ai/ha): 0
Barnyardgrass plant response rating ([25]; 125 g ai/ha): 25
Barnyardgrass plant response rating ([25]; 250 g ai/ha): 80
Ducksalad plant response rating ([26]; 31 g ai/ha): 40
Ducksalad plant response rating ([26]; 62 g ai/ha): 80
Ducksalad plant response rating ([26]; 125 g ai/ha): 85
Ducksalad plant response rating ([26]; 250 g ai/ha): 95
Sedge, Umbrella plant response rating ([27]; 31 g ai/ha): 40
Sedge, Umbrella plant response rating ([27]; 62 g ai/ha): 75
Sedge, Umbrella plant response rating ([27]; 125 g ai/ha): 85
Sedge, Umbrella plant response rating ([27]; 250 g ai/ha): 95
Rice plant response rating (rice (Oryza sativa) [28]; 31 g ai/ha): 0
Rice plant response rating (rice (Oryza sativa) [28]; 62 g ai/ha): 0
Rice plant response rating (rice (Oryza sativa) [28]; 125 g ai/ha): 0
Rice plant response rating (rice (Oryza sativa) [28]; 250 g ai/ha): 20
Plant response rating, Barnyardgrass [12, 33]: 90
Barnyardgrass plant response rating ([12]; 125 g ai/ha): 100
Plant response rating, Pigweed [16, 33]: 20
Pigweed plant response rating ([16]; 125 g ai/ha): 100
Plant response rating, Ryegrass, Italian [29, 33]: 0
Ryegrass, Italian plant response rating [29, 34]: 30
Plant response rating, Foxtail, Giant [19, 33]: 70
Foxtail, Giant plant response rating ([19]; 125 g ai/ha): 100
Plant response rating, Kochia (kochia (Kochia scoparia) [30]; [33]): 0
Kochia plant response rating (kochia (Kochia scoparia) [30]; [34]): 40
Plant response rating, Ragweed [31, 33]: 0
Ragweed plant response rating [31, 34]: 100
